From patent publication US20170334934A1, “Macrocyclic picolinamides as fungicides” (DOW AGROSCIENCES LLC, priority 2014, published 2017)
Read-outs that look alike come from different tables or passages of the source.

What was measured:
[1] = system: Mycosphaerella graminicola; Anamorph: Zymoseptoria tritici; test: Fungicidal activity: Leaf Blotch of Wheat (SEPTTR), wheat seedlings; type: in vivo; details: Low Volume (121.5 g/H), wheat
Description: Example A: Evaluation of Fungicidal Activity: Leaf Blotch of Wheat (Mycosphaerella graminicola; Anamorph: Zymoseptoria tritici; Bayer Code […]) Technical grades of materials were dissolved in acetone, which were then mixed with nine volumes of water containing 110 ppm Triton X-100. The fungicide solutions were applied onto wheat seedlings using an automated booth sprayer to run-off. All sprayed plants were allowed to air dry prior to further handling. All fungicides were evaluated using the aforementioned method for their activity vs. all target diseases, unless stated otherwise. Wheat leaf blotch and brown rust activity were also evaluated using track spray applications, in which case the fungicides were formulated as EC formulations, containing 0.1% Trycol 5941 in the spray solutions. Wheat plants (variety Yuma) were grown from seed in a greenhouse in 50% mineral soil/50% soil-less Metro mix until the first leaf was fully emerged, with 7-10 seedlings per pot. These plants were inoculated with an aqueous spore suspension of Zymoseptoria tritici either prior to or after fungicide treatments. After inoculation the plants were kept in 100% relative humidity (one day in a dark dew chamber followed by two to three days in a lighted dew chamber at 20° C.) to permit spores to germinate and infect the leaf. The plants were then transferred to a greenhouse set at 20° C. for disease to develop. When disease symptoms were fully expressed on the 1st leaves of untreated plants, infection levels were assessed on a scale of 0 to 100 percent disease severity. Percent disease control was calculated using the ratio of disease severity on treated plants relative to untreated plants.

Puccinia triticina = test: Fungicidal activity: Wheat Brown Rust (PUCCRT), wheat seedlings; type: in vivo; details: Low Volume (121.5 g/H)
Description: Technical grades of materials were dissolved in acetone, which were then mixed with nine volumes of water containing 110 ppm Triton X-100. The fungicide solutions were applied onto wheat seedlings using an automated booth sprayer to run-off. All sprayed plants were allowed to air dry prior to further handling. All fungicides were evaluated using the aforementioned method for their activity vs. all target diseases, unless stated otherwise. Wheat leaf blotch and brown rust activity were also evaluated using track spray applications, in which case the fungicides were formulated as EC formulations, containing 0.1% Trycol 5941 in the spray solutions. Wheat plants (variety Yuma) were grown from seed in a greenhouse in 50% mineral soil/50% soil-less Metro mix until the first leaf was fully emerged, with 7-10 seedlings per pot. These plants were inoculated with an aqueous spore suspension of Zymoseptoria tritici either prior to or after fungicide treatments. After inoculation the plants were kept in 100% relative humidity (one day in a dark dew chamber followed by two to three days in a lighted dew chamber at 20° C.) to permit spores to germinate and infect the leaf. The plants were then transferred to a greenhouse set at 20° C. for disease to develop. When disease symptoms were fully expressed on the 1st leaves of untreated plants, infection levels were assessed on a scale of 0 to 100 percent disease severity. Percent disease control was calculated using the ratio of disease severity on treated plants relative to untreated plants. Example B: Evaluation of Fungicidal Activity: Wheat Brown Rust (Puccinia triticina; Synonym: Puccinia recondita f. sp. tritici; Bayer Code PUCCRT) Wheat plants (variety Yuma) were grown from seed in a greenhouse in 50% mineral soil/50% soil-less Metro mix until the first leaf was fully emerged, with 7-10 seedlings per pot. These plants were inoculated with an aqueous spore suspension of Puccinia triticina either prior to or after fungicide treatments. After inoculation the plants were kept in a dark dew room at 22° C. with 100% relative humidity overnight to permit spores to germinate and infect the leaf. The plants were then transferred to a greenhouse set at 24° C. for disease to develop. Fungicide formulation, application and disease assessment followed the procedures as described in the Example A.

[2] = 24 h, 1 Day Protectant, read-out: SEPTTR disease control rating, 1DP
[3] = 72 h, 3 Day Curative, read-out: SEPTTR disease control rating, 3DC
[4] = 24 h, 1 Day Protectant, read-out: PUCCRT disease control rating, 1DP
[5] = 72 h, 3 Day Curative, read-out: PUCCRT disease control rating, 3DC

SMILES	pest or weed control at 121.5 g/ha [1, 2]	pest or weed control at 121.5 g/ha [1, 3]	pest or weed control at 121.5 g/ha (Puccinia triticina; [4])	pest or weed control at 121.5 g/ha (Puccinia triticina; [5])
COc1ccnc(C(=O)N[C@H]2CCO[C@H](Cc3ccc(F)cc3)[C@@H](Oc3ccccc3)[C@H](C)OC2=O)c1OC(C)=O [Compound 75]	> 70%	< 70%	> 70%	> 70%
COc1ccnc(C(=O)N[C@H]2CCO[C@H](Cc3ccc(F)cc3)[C@@H](OC(=O)C(C)C)[C@H](C)OC2=O)c1OC(C)=O [Compound 76]	> 70%	> 70%	> 70%	> 70%
COc1ccnc(C(=O)N[C@H]2CCO[C@H](Cc3ccc(F)cc3)[C@@H](OCC(C)C)[C@H](C)OC2=O)c1OC(C)=O [Compound 77]	> 70%	> 70%	> 70%	> 70%
C=CCO[C@H]1[C@H](C)OC(=O)[C@@H](NC(=O)c2nccc(OC)c2OCOC(C)=O)CCO[C@@H]1Cc1ccc(F)cc1 [Compound 78]	< 70%	< 70%	> 70%	> 70%
CCCO[C@H]1[C@H](C)OC(=O)[C@@H](NC(=O)c2nccc(OC)c2OCOC(C)=O)CCO[C@@H]1Cc1ccc(F)cc1 [Compound 79, ((2-(((2R,3S,4S,7S)-2-(4-fluorobenzyl)-4-methyl-6-oxo-3-propoxy-1,5-dioxonan-7-yl)carbamoyl)-4-methoxypyridin-3-yl)oxy)methyl acetate]	> 70%	> 70%	> 70%	> 70%
C=CCO[C@H]1[C@H](C)OC(=O)[C@@H](NC(=O)c2nccc(OC)c2OC(C)=O)CCO[C@@H]1Cc1ccc(F)cc1 [Compound 80]	< 70%	< 70%	< 70%	< 70%
CCCO[C@H]1[C@H](C)OC(=O)[C@@H](NC(=O)c2nccc(OC)c2OC(C)=O)CCO[C@@H]1Cc1ccc(F)cc1 [Compound 81, 2-(((2R,3S,4S,7S)-2-(4-fluorobenzyl)-4-methyl-6-oxo-3-propoxy-1,5-dioxonan-7-yl)carbamoyl)-4-methoxypyridin-3-yl acetate]	< 70%	< 70%	< 70%	< 70%
COc1ccnc(C(=O)N[C@H]2CCO[C@H](Cc3ccccc3)[C@@H](Oc3ccccc3)[C@H](C)OC2=O)c1OCOC(C)=O [Compound 82]	> 70%	> 70%	> 70%	> 70%
COc1ccnc(C(=O)N[C@H]2CCO[C@H](Cc3ccccc3)[C@@H](Oc3ccccc3)[C@H](C)OC2=O)c1OC(C)=O [Compound 83]	> 70%	> 70%	> 70%	> 70%
COc1ccnc(C(=O)N[C@H]2CCO[C@H](CC3CCCC3)[C@@H](Oc3ccccc3)[C@H](C)OC2=O)c1OCOC(C)=O [Compound 85]	> 70%	> 70%	> 70%	> 70%
COc1ccc(C[C@H]2OCC[C@H](NC(=O)c3nccc(OC)c3OCOC(C)=O)C(=O)O[C@@H](C)[C@@H]2OCC2CC2)cc1 [Compound 86]	> 70%	< 70%	> 70%	> 70%
COc1ccc(C[C@H]2OCC[C@H](NC(=O)c3nccc(OC)c3OCOC(C)=O)C(=O)O[C@@H](C)[C@@H]2Oc2ccccc2)cc1 [Compound 87]	> 70%	< 70%	> 70%	> 70%
